Where “and” joins values, the source holds several entries; their conditions need not be identical. Equal values may be shown once.
Experiment: Part 2 MAD plasma pharmacokinetics, BID oral KAR5585 for 14 days
[1] = 100 mg (Cohort 2) to 400 mg (Cohort 4) BID fed, 4-fold increase in dose
[2] = 100 mg/dose BID Fasted, Cohort 1, Day 1 AM
[3] = 100 mg/dose BID Fasted, Cohort 1, Day 14
[4] = 100 mg/dose BID Fed, Cohort 2, Day 1 AM
[5] = 100 mg/dose BID Fed, Cohort 2, Day 1 PM
[6] = 100 mg/dose BID Fed, Cohort 2, Day 7 AM
[7] = 100 mg/dose BID Fed, Cohort 2, Day 7 PM
[8] = 100 mg/dose BID Fed, Cohort 2, Day 14
[9] = 200 mg/dose BID Fed, Cohort 3, Day 1 AM
[10] = 400 mg/dose BID Fed, Cohort 4, Day 1 AM
[11] = 400 mg/dose BID Fed, Cohort 4, Day 1 PM
[12] = 400 mg/dose BID Fed, Cohort 4, Day 7 AM
[13] = 400 mg/dose BID Fed, Cohort 4, Day 7 PM
[14] = 400 mg/dose BID Fed, Cohort 4, Day 14 (last block, /D fits 400 mg)
[15] = Day 7 AM, blank dose cell under 400/Fed Cohort 4, /D fits 200 mg Fed Cohort 3
[16] = Day 7 AM, blank dose cell under 400/Fed Cohort 4, likely 200 mg Fed Cohort 3
[17] = Day 7 PM (3rd 7/PM block), blank dose cell under 400/Fed Cohort 4, /D fits 200 mg Fed Cohort 3
[18] = Day 7 PM, blank dose cell under 400/Fed Cohort 4, /D fits 200 mg Fed Cohort 3
[19] = Day 14 (first Day 14 block), blank dose cell under 400/Fed Cohort 4, /D fits 200 mg Fed Cohort 3

Procedure: Food effect was to be evaluated in Part 1, Period 2.
Part 2 (MAD): BID doses (separated by approximately 12 hours on Days 1 to 13) and a single AM dose on Day 14. One or more of the MAD Cohort could have been dosed once daily (QD).
Pharmacokinetic data were to be summarized descriptively.

## CCOC(=O)[C@@H]1CC2(CCN(c3cc(O[C@H](c4ccc(Cl)cc4-c4ccccc4)C(F)(F)F)nc(N)n3)CC2)CN1 [KAR5585, (S)-ethyl 8-(2-amino-6-((R)-1-(5-chloro-[1,1′-biphenyl]-2-yl)-2,2,2-trifluoroethoxy)pyrimidin-4-yl)-2,8-diazaspiro[4.5]decane-3-carboxylate]
[1]
  increase in mean AUC0-12, Day 1: 5.1 fold
  increase in mean AUC0-12, Day 14: 3.1 fold
  increase in mean AUC0-24, Day 1: 3.6 fold
  increase in mean AUC0-24, Day 14: 3.6 fold and 3.63 fold
  increase in mean Cmax, Day 1: 4.4 fold
  increase in mean Cmax, Day 14: ~3.0 fold
100 mg KAR5585 BID, Part 2 Cohort 1 (fasted state)
  time to peak plasma concentrations (range), Day 1: 0.75 to 2.0 h
100 mg KAR5585 BID, fed
  VZ/F, Day 14: 3520 L
  mean VZ/F, Day 1: 4100 L
[2]
  AUC0-12 (Mean): 62.8 ng·h/mL
  Cmax (Mean): 16.7 ng/mL
  Vz/F (Mean): 4900 L
  tmax (Median): 1.5 h
[3]
  AUC0-24 (Mean): 99.8 ng·h/mL
  C24 (Geo. Mean): BLQ
  C24 (Mean): BLQ
  Cmax (Mean): 21.3 ng/mL
  Vz/F (Geo. Mean): 4230 L
  Vz/F (Mean): 4420 L
  t1/2 (Mean): 2.49 h
  tmax (Median): 1.0 h
[4]
  AUC0-12 (Geo. Mean): 51.2 ng·h/mL
  AUC0-12 (Mean): 55.5 ng·h/mL
  AUC0-∞ (Geo. Mean): 51.7 ng·h/mL
  AUC0-∞ (Mean): 55.9 ng·h/mL
  Cmax (Geo. Mean): 17.7 ng/mL
  Cmax (Mean): 18.4 ng/mL
  Vz/F (Geo. Mean): 3830 L
  Vz/F (Mean): 4100 L
  t1/2 (Geo. Mean): 1.37 h
  tmax (Median): 0.75 h
[5]
  AUC0-∞ (Geo. Mean): 152 ng·h/mL
  Cmax (Geo. Mean): 39.8 ng/mL
  Cmax (Mean): 44.1 ng/mL
  Vz/F (Geo. Mean): 1730 L
  Vz/F (Mean): 1820 L
  t1/2 (Geo. Mean): 1.82 h
  tmax (Median): 2.0 h
[6]
  AUC0-12 (Geo. Mean): 127 ng·h/mL
  AUC0-∞ (Geo. Mean): 137 ng·h/mL
  Cmax (Geo. Mean): 29.8 ng/mL
  Cmax (Mean): 31.3 ng/mL
  Vz/F (Geo. Mean): 3210 L
  Vz/F (Mean): 3360 L
  t1/2 (Geo. Mean): 2.82 h
  tmax (Median): 2.0 h
[7]
  AUC0-12 (Geo. Mean): 142 ng·h/mL
  AUC0-12 (Mean): 145 ng·h/mL
  AUC0-24 (Geo. Mean): 278 ng·h/mL
  AUC0-∞ (Geo. Mean): 168 ng·h/mL
  Cmax (Mean): 28.4 ng/mL
  Vz/F (Geo. Mean): 3550 L
  Vz/F (Mean): 3910 L
  t1/2 (Mean): 3.80 h
  tmax (Median): 4.0 h
[8]
  AUC0-12 (Geo. Mean): 114 ng·h/mL
  AUC0-24 (Geo. Mean): 121 ng·h/mL
  AUC0-24 (Mean): 122 ng·h/mL
  AUC0-∞ (Geo. Mean): 121 ng·h/mL
  C24 (Geo. Mean): BLQ
  C24 (Mean): BLQ
  Cmax (Geo. Mean): 28.5 ng/mL
  Cmax (Mean): 30.0 ng/mL
  Vz/F (Geo. Mean): 3330 L
  Vz/F (Mean): 3520 L
  t1/2 (Geo. Mean): 2.64 h
  t1/2 (Mean): 2.73 h
  tmax (Median): 1.8 h
200 mg KAR5585 BID, fed
  VZ/F, Day 14: 7010 L
  mean VZ/F, Day 1: 3220 L
[9]
  Cmax (Mean): 87.8 ng/mL
  Vz/F (Geo. Mean): 3130 L
  Vz/F (Mean): 3220 L
  t1/2 (Geo. Mean): 2.81 h
  t1/2 (Mean): 2.91 h
  tmax (Median): 1.5 h
400 mg KAR5585 BID, fed
  VZ/F, Day 14: 10300 L
  mean VZ/F, Day 1: 6800 L
  tmax Day 7 evening dose: 6 h
[10]
  AUC0-12 (Geo. Mean): 25.3 ng·h/mL
  AUC0-12 (Mean): 2.81 ng·h/mL
  AUC0-∞ (Geo. Mean): 272 ng·h/mL
  AUC0-∞ (Mean): 305 ng·h/mL
  Cmax (Mean): 81.8 ng/mL
  Vz/F (Mean): 6800 L
  t1/2 (Geo. Mean): 3.00 h
  tmax (Median): 2.0 h
[11]
  AUC0-∞ (Geo. Mean): 633 ng·h/mL
  Cmax (Geo. Mean): 1100 ng/mL
  Vz/F (Geo. Mean): 3820 L
  Vz/F (Mean): 4030 L
  t1/2 (Geo. Mean): 4.18 h
  t1/2 (Mean): 4.33 h
  tmax (Median): 3.0 h
[12]
  AUC0-12 (Geo. Mean): 473 ng·h/mL
  AUC0-∞ (Geo. Mean): 577 ng·h/mL
  Cmax (Geo. Mean): 91.3 ng/mL
  Vz/F (Geo. Mean): 5680 L
  Vz/F (Mean): 6220 L
  t1/2 (Mean): 4.90 h
  tmax (Median): 2.0 h
[13]
  AUC0-12 (Geo. Mean): 394 ng·h/mL
  AUC0-∞ (Geo. Mean): 534 ng·h/mL
  Cmax (Mean): 69.0 ng/mL
  Vz/F (Geo. Mean): 6770 L
  Vz/F (Mean): 6950 L
  tmax (Median): 6.0 h
[14]
  AUC0-12 (Geo. Mean): 359 ng·h/mL
  AUC0-24 (Geo. Mean): 433 ng·h/mL
  AUC0-24 (Mean): 444 ng·h/mL
  AUC0-∞ (Geo. Mean): 465 ng·h/mL
  Cmax (Geo. Mean): 85.3 ng/mL
  Cmax (Mean): 89.0 ng/mL
  Vz/F (Geo. Mean): 9780 L
  Vz/F (Mean): 10300 L
  t1/2 (Geo. Mean): 6.08 h
  t1/2 (Mean): 6.45 h
  tmax (Median): 1.5 h
BID oral KAR5585 for 14 days
  study day by which steady-state plasma levels were achieved: ≤ 7 days
Day 7 AM
  tmax (Median): 3.0 h
[15]
  t1/2 (Geo. Mean): 4.21 h
  t1/2 (Mean): 4.30 h
[16]
  AUC0-12 (Geo. Mean): 217 ng·h/mL
  AUC0-12 (Mean): 230 ng·h/mL
  AUC0-∞ (Geo. Mean): 256 ng·h/mL
  AUC0-∞ (Mean): 273 ng·h/mL
  Vz/F (Geo. Mean): 5610 L
  Vz/F (Mean): 5960 L
Day 7 PM
  tmax (Median): 6.0 h
[17]
  AUC0-12 (Geo. Mean): 201 ng·h/mL
  AUC0-24 (Geo. Mean): 414 ng·h/mL
  AUC0-∞ (Geo. Mean): 289 ng·h/mL
  AUC0-∞ (Mean): 290 ng·h/mL
  Vz/F (Geo. Mean): 7000 L
  Vz/F (Mean): 8710 L
[18]
  AUC0-12 (Geo. Mean): 333 ng·h/mL
  AUC0-24 (Geo. Mean): 583 ng·h/mL
  AUC0-∞ (Geo. Mean): 406 ng·h/mL
  Cmax (Mean): 42.6 ng/mL
  Vz/F (Geo. Mean): 3010 L
  Vz/F (Mean): 3120 L
[19]
  AUC0-24 (Geo. Mean): 199 ng·h/mL
  AUC0-24 (Mean): 212 ng·h/mL
  C24 (Geo. Mean): BLQ
  C24 (Mean): BLQ
  Cmax (Geo. Mean): 43.5 ng/mL
  Cmax (Mean): 48.8 ng/mL
  Vz/F (Geo. Mean): 6430 L
  Vz/F (Mean): 7010 L

— patent publication US20200237759A1, “DOSAGE REGIME AND METHOD FOR TREATING PULMONARY ARTERIAL HYPERTENSION” (Altavant Sciences GmbH, priority 2019, published 2020)
